{"source": "patent US20220023314A1", "about": "“STABLE FORMULATIONS OF ANESTHETICS AND […] FORMS” (HALO SCIENCE LLC, priority 2018, published 2022)", "origin": "cited, not measured here", "conditions": "in vivo", "data": [{"compound": "C[C@]12CC[C@@H](O)C[C@@H]1CC[C@H]1[C@@H]3CC[C@H](C(=O)CO)[C@@]3(C)CC(=O)[C@@H]12", "note": "[Alphadolone]", "values": [{"measurement": "potency relative to alphaxalone", "result": "half as potent"}]}]}
